# Data reported in article PMC5218480 (PLoS ONE, 2017).
# Tested on: MV-4-11 cells
# Assay: Gene expression microarray analysis (Affymetrix PrimeView) and GSEA
# Assay type: cell-based, human
# Design: RFU PODN (11730768_x_at) / Fold change /veh PODN (11730768_x_at) / RFU LINC00158 (11744669_a_at) / Fold change /veh LINC00158 (11744669_a_at) / RFU DUSP10 (11751237_a_at) / Fold change /veh DUSP10 (11751237_a_at) / RFU ID3 (11757404_x_at) / Fold change /veh ID3 (11757404_x_at) / RFU PLEKHG5 (11737974_s_at) / Fold change /veh PLEKHG5 (11737974_s_at) / RFU LRRC4B (11730491_at) / Fold change /veh LRRC4B (11730491_at) / RFU GIMAP4 (11747438_a_at) / Fold change /veh GIMAP4 (11747438_a_at) / RFU KRT8 (11758183_x_at) / Fold change /veh KRT8 (11758183_x_at) / RFU CNN1 (11734310_a_at) / Fold change /veh CNN1 (11734310_a_at) / RFU VPS37D (11726825_at) / Fold change /veh VPS37D (11726825_at) / RFU C10orf10 (11716522_x_at) / Fold change /veh C10orf10 (11716522_x_at) / RFU KIR2DL2 /// KIR2DL4 /// KIR2DL5A /// KIR2DL5B /// KIR2DS1 /// KIR2DS2 /// KIR2DS3 /// KIR2DS4 /// KIR3DL3 /// KIR3DL3 /// KIR3DS1 (11738374_at) / Fold change /veh KIR2DL2 /// KIR2DL4 /// KIR2DL5A /// KIR2DL5B /// KIR2DS1 /// KIR2DS2 /// KIR2DS3 /// KIR2DS4 /// KIR3DL3 /// KIR3DL3 /// KIR3DS1 (11738374_at) / RFU C1QL1 (11718748_at) / Fold change /veh C1QL1 (11718748_at) / RFU TMPRSS4 (11747572_a_at) / Fold change /veh TMPRSS4 (11747572_a_at) / RFU HAMP (11756126_x_at) / Fold change /veh HAMP (11756126_x_at) / RFU RNFT2 (11725882_a_at) / Fold change /veh RNFT2 (11725882_a_at) / RFU NR4A2 (11747474_a_at) / Fold change /veh NR4A2 (11747474_a_at) / RFU ABCC12 (11746883_a_at) / Fold change /veh ABCC12 (11746883_a_at) / RFU TMEM136 (11760407_x_at) / Fold change /veh TMEM136 (11760407_x_at) / RFU CLDN22 /// WWC2 (11732394_at) / Fold change /veh CLDN22 /// WWC2 (11732394_at) / RFU HLA-DPB1 (11760878_x_at) / Fold change /veh HLA-DPB1 (11760878_x_at) / RFU SPINT1 (11716480_a_at) / Fold change /veh SPINT1 (11716480_a_at) / RFU GAP43 (11754022_s_at) / Fold change /veh GAP43 (11754022_s_at) / RFU A4GNT (11735810_at) / Fold change /veh A4GNT (11735810_at) / RFU PRB3 (11715151_x_at) / Fold change /veh PRB3 (11715151_x_at) / RFU TUBB4B (11761932_at) / Fold change /veh TUBB4B (11761932_at) / RFU CAPN14 (11732068_a_at) / Fold change /veh CAPN14 (11732068_a_at) / RFU TMCC2 (11721928_a_at) / Fold change /veh TMCC2 (11721928_a_at) / RFU IRGQ (11745062_a_at) / Fold change /veh IRGQ (11745062_a_at) / RFU FAM174B (11720279_a_at) / Fold change /veh FAM174B (11720279_a_at) / RFU TMPRSS4 (11748680_a_at) / Fold change /veh TMPRSS4 (11748680_a_at) / RFU FAM212B (11763350_a_at) / Fold change /veh FAM212B (11763350_a_at) / RFU PLEKHG5 (11743358_a_at) / Fold change /veh PLEKHG5 (11743358_a_at) / RFU ZSCAN30 (11745921_a_at) / Fold change /veh ZSCAN30 (11745921_a_at) / RFU CMKLR1 (11741424_a_at) / Fold change /veh CMKLR1 (11741424_a_at) / RFU LOC101060620 /// MAPK8IP1 (11723275_at) / Fold change /veh LOC101060620 /// MAPK8IP1 (11723275_at) / RFU SPTSSB (11747773_x_at) / Fold change /veh SPTSSB (11747773_x_at) / RFU PRSS12 (11739890_at) / Fold change /veh PRSS12 (11739890_at) / RFU BIN1 (11741810_x_at) / Fold change /veh BIN1 (11741810_x_at) / RFU WNT11 (11732464_a_at) / Fold change /veh WNT11 (11732464_a_at) / RFU C10orf10 (11716521_a_at) / Fold change /veh C10orf10 (11716521_a_at) / RFU C5orf56 (11738089_at) / Fold change /veh C5orf56 (11738089_at) / RFU CYB561 (11721691_x_at) / Fold change /veh CYB561 (11721691_x_at) / RFU ANKRD19P (11752326_a_at) / Fold change /veh ANKRD19P (11752326_a_at) / RFU OR2T12 /// OR2T33 /// OR2T8 (11738714_s_at) / Fold change /veh OR2T12 /// OR2T33 /// OR2T8 (11738714_s_at) / RFU VCAN (11748164_a_at) / Fold change /veh VCAN (11748164_a_at) / RFU JSRP1 (11732532_at) / Fold change /veh JSRP1 (11732532_at) / RFU KRTAP10-11 (11738290_x_at) / Fold change /veh KRTAP10-11 (11738290_x_at) / RFU MYO3A (11730013_a_at) / Fold change /veh MYO3A (11730013_a_at) / RFU EBF3 (11725865_a_at) / Fold change /veh EBF3 (11725865_a_at) / RFU CAMK2N1 (11719241_x_at) / Fold change /veh CAMK2N1 (11719241_x_at) / RFU C5orf56 (11738088_a_at) / Fold change /veh C5orf56 (11738088_a_at) / RFU OLFML3 (11715873_a_at) / Fold change /veh OLFML3 (11715873_a_at) / RFU LOC100653217 /// NTM (11731650_a_at) / Fold change /veh LOC100653217 /// NTM (11731650_a_at) / RFU MAPK11 (11762145_a_at) / Fold change /veh MAPK11 (11762145_a_at) / RFU FIZ1 (11724087_x_at) / Fold change /veh FIZ1 (11724087_x_at) / RFU OASL (11726364_x_at) / Fold change /veh OASL (11726364_x_at) / RFU SOX15 (11748057_x_at) / Fold change /veh SOX15 (11748057_x_at) / RFU CD79A (11719716_a_at) / Fold change /veh CD79A (11719716_a_at) / RFU HIST1H1D (11736915_at) / Fold change /veh HIST1H1D (11736915_at) / RFU CASKIN2 (11723855_a_at) / Fold change /veh CASKIN2 (11723855_a_at) / RFU LOC730098 (11760151_x_at) / Fold change /veh LOC730098 (11760151_x_at) / RFU OR4N2 (11742367_at) / Fold change /veh OR4N2 (11742367_at) / RFU PRRT2 (11749266_a_at) / Fold change /veh PRRT2 (11749266_a_at) / RFU SNX32 (11753110_a_at) / Fold change /veh SNX32 (11753110_a_at) / RFU CDHR5 (11726645_a_at) / Fold change /veh CDHR5 (11726645_a_at) / RFU RCAN1 (11760418_a_at) / Fold change /veh RCAN1 (11760418_a_at) / RFU FAM167A (11723789_a_at) / Fold change /veh FAM167A (11723789_a_at) / RFU FAM26E (11764081_at) / Fold change /veh FAM26E (11764081_at) / RFU ISYNA1 (11749810_s_at) / Fold change /veh ISYNA1 (11749810_s_at) / RFU ACY1 (11761880_at) / Fold change /veh ACY1 (11761880_at) / RFU 11764098_at / Fold change /veh 11764098_at / RFU SAMD14 (11745864_x_at) / Fold change /veh SAMD14 (11745864_x_at) / RFU NPB (11741838_a_at) / Fold change /veh NPB (11741838_a_at) / RFU TMPRSS6 (11731388_a_at) / Fold change /veh TMPRSS6 (11731388_a_at) / RFU KRTAP10-2 (11738614_at) / Fold change /veh KRTAP10-2 (11738614_at) / RFU ARHGAP8 /// PRR5-ARHGAP8 (11727945_x_at) / Fold change /veh ARHGAP8 /// PRR5-ARHGAP8 (11727945_x_at) / RFU KRTAP5-7 /// NADSYN1 (11734609_at) / Fold change /veh KRTAP5-7 /// NADSYN1 (11734609_at) / RFU RASL12 (11751679_a_at) / Fold change /veh RASL12 (11751679_a_at) / RFU CDKN2B (11736163_a_at) / Fold change /veh CDKN2B (11736163_a_at) / RFU PRF1 (11729649_at) / Fold change /veh PRF1 (11729649_at) / RFU, ZNF638 /// ZNF638-IT1 / Fold change vs veh, ZNF638 /// ZNF638-IT1 / RFU, PANK3 / Fold change vs veh, PANK3 / RFU, SH3YL1 / Fold change vs veh, SH3YL1 / RFU, ZEB2 / Fold change vs veh, ZEB2 / RFU, NRIP1 / Fold change vs veh, NRIP1 / RFU, PTTG1IP / Fold change vs veh, PTTG1IP / RFU, CAPN2 / Fold change vs veh, CAPN2 / RFU, MED14 / Fold change vs veh, MED14 / RFU, SNORA58 / Fold change vs veh, SNORA58 / RFU, C1orf63 / Fold change vs veh, C1orf63 / RFU, LRRFIP1 / Fold change vs veh, LRRFIP1 / RFU, NDUFAF7 / Fold change vs veh, NDUFAF7 / RFU, SLC12A2 / Fold change vs veh, SLC12A2 / RFU, IBTK / Fold change vs veh, IBTK / RFU, ESF1 / Fold change vs veh, ESF1 / Fold change vs veh, TMEM50B / RFU, TAOK1 / Fold change vs veh, TAOK1 / RFU, ACBD3 / Fold change vs veh, ACBD3 / RFU, TMA16 / Fold change vs veh, TMA16 / RFU, RWDD3 / Fold change vs veh, RWDD3 / RFU, BCAT1 / Fold change vs veh, BCAT1 / RFU, EDEM3 / Fold change vs veh, EDEM3 / RFU, TMEM33 / Fold change vs veh, TMEM33 / RFU, WDR75 / Fold change vs veh, WDR75 / RFU, AHCTF1 / Fold change vs veh, AHCTF1 / RFU, TFRC / Fold change vs veh, TFRC / RFU, ZDHHC17 / Fold change vs veh, ZDHHC17 / RFU, NOM1 / Fold change vs veh, NOM1 / RFU, ARL8B / Fold change vs veh, ARL8B / RFU, ZBTB11 / Fold change vs veh, ZBTB11 / RFU, TAMM41 / Fold change vs veh, TAMM41 / RFU, KIAA1704 /// LOC100996395 / Fold change vs veh, KIAA1704 /// LOC100996395 / RFU, ING1 / Fold change vs veh, ING1 / RFU, TRMT61B / Fold change vs veh, TRMT61B / RFU, FUBP3 / Fold change vs veh, FUBP3 / RFU, TP53 / Fold change vs veh, TP53 / RFU, TNKS2 / Fold change vs veh, TNKS2 / RFU, ZFP14 / Fold change vs veh, ZFP14 / RFU, ACTR2 / Fold change vs veh, ACTR2 / RFU, PPP3R1 / Fold change vs veh, PPP3R1 / RFU, PIK3R1 / Fold change vs veh, PIK3R1 / RFU, HNRNPA1 / Fold change vs veh, HNRNPA1 / RFU, RNF170 / Fold change vs veh, RNF170 / RFU, ZNF28 / Fold change vs veh, ZNF28 / RFU, RNGTT / Fold change vs veh, RNGTT / RFU, OGT / Fold change vs veh, OGT / RFU, BRD1 / Fold change vs veh, BRD1 / RFU, MARS / Fold change vs veh, MARS / RFU, ZNF655 / Fold change vs veh, ZNF655 / RFU, FAHD1 / Fold change vs veh, FAHD1 / RFU, BDP1 / Fold change vs veh, BDP1 / RFU, LRRCC1 / Fold change vs veh, LRRCC1 / RFU, ARID1A / Fold change vs veh, ARID1A / RFU, ZNF146 / Fold change vs veh, ZNF146 / RFU, ZNF330 / Fold change vs veh, ZNF330 / RFU, GPN3 / Fold change vs veh, GPN3 / RFU, C9orf123 / Fold change vs veh, C9orf123 / RFU, N4BP2L2 / Fold change vs veh, N4BP2L2 / RFU, ARFIP1 / Fold change vs veh, ARFIP1 / RFU, FAM179B / Fold change vs veh, FAM179B / RFU, BCL10 / Fold change vs veh, BCL10 / RFU, UHRF1BP1L / Fold change vs veh, UHRF1BP1L / RFU, BET1 / Fold change vs veh, BET1 / RFU, CNOT2 / Fold change vs veh, CNOT2 / RFU, ZNF268 / Fold change vs veh, ZNF268 / Fold change vs veh, ZNF507 / RFU, DGCR2 / Fold change vs veh, DGCR2 / RFU, WDSUB1 / Fold change vs veh, WDSUB1 / Fold change vs veh, HSP90B1 /// MIR3652 / RFU, ADSS / Fold change vs veh, ADSS / RFU, GK / Fold change vs veh, GK / RFU, ZNF148 / Fold change vs veh, ZNF148 / RFU, TAF9 / Fold change vs veh, TAF9 / RFU, SLC1A5 / Fold change vs veh, SLC1A5 / RFU, SLMO2 / Fold change vs veh, SLMO2 / RFU, ABCC4 / Fold change vs veh, ABCC4 / RFU, LOC101060439 /// RAP1B / Fold change vs veh, LOC101060439 /// RAP1B / RFU, RFX7 / Fold change vs veh, RFX7 / RFU, GTPBP10 / Fold change vs veh, GTPBP10 / RFU, CNEP1R1 / Fold change vs veh, CNEP1R1 / RFU, BIVM-ERCC5 /// ERCC5 / Fold change vs veh, BIVM-ERCC5 /// ERCC5 / RFU, ILF3 / Fold change vs veh, ILF3 / RFU 11762660_at / Fold change /veh 11762660_at / RFU VCAN (11757783_s_at) / Fold change /veh VCAN (11757783_s_at) / RFU DDX43 (11728927_at) / Fold change /veh DDX43 (11728927_at) / RFU KRT8 (11758188_x_at) / Fold change /veh KRT8 (11758188_x_at) / RFU NKD1 (11759106_at) / Fold change /veh NKD1 (11759106_at) / RFU SRD5A1 (11742802_a_at) / Fold change /veh SRD5A1 (11742802_a_at) / RFU TPSAB1 /// TPSB2 (11721975_s_at) / Fold change /veh TPSAB1 /// TPSB2 (11721975_s_at) / RFU GSTM3 (11746129_a_at) / Fold change /veh GSTM3 (11746129_a_at) / RFU IL23R (11737362_x_at) / Fold change /veh IL23R (11737362_x_at) / RFU TMEM51 (11727254_a_at) / Fold change /veh TMEM51 (11727254_a_at) / RFU PIWIL2 (11732686_x_at) / Fold change /veh PIWIL2 (11732686_x_at) / RFU ORM1 (11744905_x_at) / Fold change /veh ORM1 (11744905_x_at) / RFU CCDC152 (11743942_at) / Fold change /veh CCDC152 (11743942_at) / RFU ECM1 (11717891_a_at) / Fold change /veh ECM1 (11717891_a_at) / RFU IL23R (11748794_a_at) / Fold change /veh IL23R (11748794_a_at) / RFU TNFAIP8L3 (11732012_x_at) / Fold change /veh TNFAIP8L3 (11732012_x_at) / RFU MBOAT4 (11741988_at) / Fold change /veh MBOAT4 (11741988_at) / RFU 11764193_at / Fold change /veh 11764193_at / RFU TMEM53 (11763286_at) / Fold change /veh TMEM53 (11763286_at) / RFU MAGEB2 (11727129_at) / Fold change /veh MAGEB2 (11727129_at) / RFU TMEM200A (11744735_a_at) / Fold change /veh TMEM200A (11744735_a_at) / RFU CCDC152 (11751479_a_at) / Fold change /veh CCDC152 (11751479_a_at) / RFU FAM211A (11726209_a_at) / Fold change /veh FAM211A (11726209_a_at) / RFU RGS16 (11746705_a_at) / Fold change /veh RGS16 (11746705_a_at) / RFU VCAN (11755009_s_at) / Fold change /veh VCAN (11755009_s_at) / RFU RHOB (11743442_s_at) / Fold change /veh RHOB (11743442_s_at) / RFU RGS16 (11720943_a_at) / Fold change /veh RGS16 (11720943_a_at) / RFU RGS16 (11720944_at) / Fold change /veh RGS16 (11720944_at) / RFU, VPS4B / Fold change vs veh, VPS4B / RFU, CREB1 / Fold change vs veh, CREB1 / RFU, DNAJC13 / Fold change vs veh, DNAJC13 / RFU, GNAQ / Fold change vs veh, GNAQ / RFU, CDK5R1 / Fold change vs veh, CDK5R1 / RFU, ZRANB3 / Fold change vs veh, ZRANB3 / RFU, CUL4A / Fold change vs veh, CUL4A / RFU, CCNY / Fold change vs veh, CCNY / RFU, UFL1 / Fold change vs veh, UFL1 / RFU, COG3 / Fold change vs veh, COG3 / RFU, DIAPH2 / Fold change vs veh, DIAPH2 / RFU, SKA2 / Fold change vs veh, SKA2 / RFU, AFF3 / Fold change vs veh, AFF3 / RFU, LMF1 / Fold change vs veh, LMF1 / RFU, IPO11 / Fold change vs veh, IPO11 / RFU, DFFB / Fold change vs veh, DFFB / RFU, FOXP1 / Fold change vs veh, FOXP1 / RFU, CARD8 / Fold change vs veh, CARD8 / RFU, STRN3 / Fold change vs veh, STRN3 / RFU, ADK / Fold change vs veh, ADK / RFU, RASSF2 / Fold change vs veh, RASSF2 / RFU, WIPF1 / Fold change vs veh, WIPF1 / RFU, LARP1B / Fold change vs veh, LARP1B / RFU, RASA1 / Fold change vs veh, RASA1 / RFU, RB1 / Fold change vs veh, RB1 / RFU, PPFIA1 / Fold change vs veh, PPFIA1 / RFU, MAT2A / Fold change vs veh, MAT2A / RFU, CCT5 / Fold change vs veh, CCT5 / RFU, WDR92 / Fold change vs veh, WDR92 / RFU, CUX1 / Fold change vs veh, CUX1 / RFU, TTC7A / Fold change vs veh, TTC7A / RFU, TMEM135 / Fold change vs veh, TMEM135 / RFU, DEPTOR / Fold change vs veh, DEPTOR / RFU, CPM / Fold change vs veh, CPM / RFU, DNAJB6 / Fold change vs veh, DNAJB6 / RFU, CACNA2D3 / Fold change vs veh, CACNA2D3 / RFU, DTX4 / Fold change vs veh, DTX4 / RFU, TFCP2 / Fold change vs veh, TFCP2 / RFU, GMCL1 /// GMCL1P1 / Fold change vs veh, GMCL1 /// GMCL1P1 / RFU, AEBP2 / Fold change vs veh, AEBP2 / RFU, SNHG1 /// SNORD22 /// SNORD25 /// SNORD26 /// SNORD27 /// SNORD28 /// SNORD29 /// SNORD31 / Fold change vs veh, SNHG1 /// SNORD22 /// SNORD25 /// SNORD26 /// SNORD27 /// SNORD28 /// SNORD29 /// SNORD31 / Fold change (Aza/veh), C12orf56 (ProbeSet 11735607_a_at) / Fold change (ACY-1035/veh), C12orf56 (ProbeSet 11735607_a_at) / Fold change (Aza/veh), FGFR1OP (ProbeSet 11751329_s_at) / Fold change (ACY-1035/veh), FGFR1OP (ProbeSet 11751329_s_at) / Fold change (Aza/veh), VPS36 (ProbeSet 11739960_a_at) / Fold change (ACY-1035/veh), VPS36 (ProbeSet 11739960_a_at) / RFU SYPL1 (11715823_x_at) / Fold change /veh SYPL1 (11715823_x_at) / RFU IGFBP7 (11715501_s_at) / Fold change /veh IGFBP7 (11715501_s_at) / RFU REEP3 (11722064_at) / Fold change /veh REEP3 (11722064_at) / RFU IGLL1 (11728026_x_at) / Fold change /veh IGLL1 (11728026_x_at): dose or concentration left out as unconfirmed
# Conditions: MV-4-11 cells, 48 hours
smiles,measurement,value
Nc1ccc(-c2cccs2)cc1NC(=O)c1ccc2c(c1)cc(C1CC1)n2CCN1CCOCC1 [ACY-1035],RFU SPTSSB (11747773_x_at),31.07 RFU
